Columns and labels:
[1] = system: Rabbit atrium; assay: Isolated rabbit atrium; settings: rabbit atrium
From the text: The technique used for this study was the same as that described above for the ileum of the rabbit, but replacing the ileum with bled rabbit atrium. The preservation liquid used as LOCKE's liquid.

[2] = system: glucidic metabolism; assay: Glucidic metabolism under intravenous perfusion in rabbits (lactacidemia, pyruvicemia, glycemia); assay type: in vivo, rabbit; settings: 30 and 60 minutes after perfusion
Procedure: These tests were carried out on rabbits weighing an average of 2.500 kg.
A trachetomy was carried out under local anaesthesia with procaine. […] A saphenous vein and the two femoral arteries were catheterized under local anaesthesia in order to register the blood pressure by a manometer and to take blood samples; a jugular vein was catheterized to the base of the skull to sample cerebral venous blood.
The results obtained were compared with those obtained following a perfusion carried out in the same way with sodium d,l-lactate at a dose of 40 mg/kg/min.
The glycemia was measured by the enzymatic method in the arterial and cerebral venus blood. The samples were taken before the perfusion, at the end of the perfusion, and at 30 minutes and 60 minutes after perfusion.

[3] = system: reticulo-endothelial system; assay: Phagocytic activity of the reticulo-endothelial system, carbon clearance (HALPERN); assay type: in vivo, rabbit; settings: FIGS. 3 and 4
From the text: That technique is based on the study of the kinetics of the disappearance in the blood of particles of carbon injected into the vein. The kinetics of disappearance follow the equation [formula] in which formula C1 is the concentration of carbon in the blood at time T1 and C2 is the concentration of carbon in the blood at time T2, K being a constant. The constant K, called phagocytic index, represents the phagocytic activity of the cells of the reticule-endothelial system under the experimental conditions. For the tests, the technique and carbon suspension described by […]. Physiol. of Paris, Vol. 50, p. […] The study was done on rabbits of the same stock, male or female, or an average weight of about 2.5 kg, devided into four batches of four animals each. The first batch was used as controls and received, by slow intravenous injection, 10 ml of a 0.8% solution of sodium chloride ten minutes before the injection of 4 mg of carbon per 100 g of animal. […] In all the tests, a total volume of 10 ml was injected with a fairly closely related injection speed (less than five minutes).

[4] = system: Rabbit ileum; assay: Isolated rabbit ileum, tonus; settings: without dihydroxyacetone
Procedure: Fragments of the ileum were suspended in a 75 ml isolated organ tank containing Tyrode's solution maintained at 37° C. by a thermostat and oxygenated by bubbling pure oxygen at a constant rate of flow. The movement of the organ were recorded by means of a lever on a cylinder rotating at a known constant speed.

[5] = system: free fatty acids in the plasma; assay: Non-esterified fatty acids in the plasma (DOLE); assay type: in vivo, rabbit
Procedure: Doses of 1 and 2 mg of adrenalin were introduced subcutaneously into rabbits weighing 2.5 to 3.5 kg.
FIGS. 8, 9 and 10 show the variation in the percentage of non-esterified fatty acids in the plasma as a function of the time. […]

[6] = system: hemorrhagic shock; assay: Irreversible hemorrhagic shock (WIGGERS) in dogs; settings: irreversible shock
Procedure: These experiments were carried out with dogs. […] Spontaneous reinjection, by progressive circulatory failure, of a quarter of the mass of blood effused during the second hemmorhage, was chosen as the irreversibility criterion. The following parameters were measured: pH, arterial and venous CO2 pressure (with a radiometertype apparatus), lactacidemia, pyruvicemia and glycemia (by the enzymatic method), and kalemia (with a flame photometer). Samples were taken from the dogs before irreversibility, immediately after, one hour 11/2 hours and 2R hours thereafter. The blood pressure was followed by femoral intubation and recorded with an apparatus providing mean arterial bloodpressure readings.

CC(O)C(=O)O (racemic) [sodium lactate, sodium d,l-lactate, reference compound]
action on rhythm of atrium [1]: accelerates the rhythm
lactacidemia at 30 and 60 minutes after the end of perfusion [2]: tended to return to its initial values
rate of phagocytosis [3]: increased

[Cl-].[K+] [Potassium chloride, reference compound]
tonus of the fiber, ordinary effect [4]: increases the tonus of the fiber in a stable manner

CNCC(O)c1ccc(O)c(O)c1 (stereo not drawn) [adrenalin]
proportion of non-esterified fatty acids one hour after injection ([5]; 1 mg of adrenalin, FIG. 9): fell below normal
proportion of non-esterified fatty acids one hour after injection ([5]; 2 mg of adrenalin, FIG. 8): again increased
average proportion of non-esterified fatty acids about 10 to 15 minutes after injection ([5]; 1 or 2 mg of adrenalin, fed rabbits): increased

O=C[C@H](O)[C@@H](O)[C@H](O)[C@H](O)CO [hypertonic glucose, glucose, reference compound]
effect on the blood pressure in hemorrhagic shock [6]: no effect
effect on the blood pressure in hemorrhagic shock ([6]; listed as 30% glucose): none
